Data from patent US8008299B2, “Urotensin II receptor antagonists” (Janssen Pharmaceutica, N.V., priority 2007, dated 2011).
Read-outs that look alike come from different tables or passages of the source.

Tests used:
[1] = biological target: T1, rat GPR14 (U-II receptor) (Rattus norvegicus, UniProt P49684); experiment: Rat UII Calcium Mobilization FLIPR Assay; type: cell-based; conditions: CHO cells transfected with rat GPR14; antagonist activity after 5 min incubation vs agonist (Ac)-CFWK(2-NaI)C-NH2 at 1 nM
T1 construct: expressed in transfected cells
T1 sequence (P49684 1-386): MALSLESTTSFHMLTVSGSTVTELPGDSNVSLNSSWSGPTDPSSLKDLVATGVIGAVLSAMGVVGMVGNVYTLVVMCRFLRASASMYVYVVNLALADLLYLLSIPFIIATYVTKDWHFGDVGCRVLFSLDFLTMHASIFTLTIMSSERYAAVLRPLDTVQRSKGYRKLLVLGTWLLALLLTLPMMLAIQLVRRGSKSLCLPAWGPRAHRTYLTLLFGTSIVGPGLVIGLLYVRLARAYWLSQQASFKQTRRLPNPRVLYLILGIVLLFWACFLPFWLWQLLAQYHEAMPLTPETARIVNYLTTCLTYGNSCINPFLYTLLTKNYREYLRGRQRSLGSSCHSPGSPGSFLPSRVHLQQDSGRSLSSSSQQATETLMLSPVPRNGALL
Source text: To derive these cells, the complete coding sequence of rat U-II (Genbank Accession No. U32673) was amplified by nested PCR from rat heart marathon-Ready cDNA. […] The PCR products were cloned into pcDNA3 (Invitrogen) digested with EcoR I and Xba I. Clones containing rat U-II receptor were verified by complete sequencing of the U-II receptor insert to ensure a lack of PCR-introduced errors. The constructed vector was transfected into CHO cells by using lipofectamine (GIBCO BRL). CHO cells with high expression of rat U-II receptor were selected and established as stable cell lines by using G418. CHO cells were seeded at 25,000 cells per well into 96-well, black-wall, clear-bottom microtiter plates 24 h before assay. Cells in culture media (DMEM/F12 containing 15 mM HEPES, L-glutamine, pyridoxine hydrochloride; 10% fetal bovine serum; 1 mg/mL G418 sulfate; antibiotic-antimycotic; pH 7.4) were loaded with proprietary dye, from the FLIPR Calcium Assay Kit (Molecular Devices), prepared in assay buffer (Hanks Balanced Salts Solution, 20 mM HEPES, 0.1% BSA, 2.5 mM probenecid, pH 7.4), and incubated for 1 h at 37° C. Calcium mobilization determinations were performed at room temperature (23° C.).

[2] = biological target: T2, Human UII (U-II receptor) in 6D9 human rhabdomyosarcoma cells (Homo sapiens, UniProt Q9UKP6); experiment: Human UII Calcium Mobilization Assay; type: cell-based
T2 construct: 6D9: isolated by dilution subcloning of RMS13 cells, ATCC® Number: CRL-2061; host or cells: 6D9 human rhabdomyosarcoma cells (subclone of RMS13)
T2 sequence (Q9UKP6 1-389): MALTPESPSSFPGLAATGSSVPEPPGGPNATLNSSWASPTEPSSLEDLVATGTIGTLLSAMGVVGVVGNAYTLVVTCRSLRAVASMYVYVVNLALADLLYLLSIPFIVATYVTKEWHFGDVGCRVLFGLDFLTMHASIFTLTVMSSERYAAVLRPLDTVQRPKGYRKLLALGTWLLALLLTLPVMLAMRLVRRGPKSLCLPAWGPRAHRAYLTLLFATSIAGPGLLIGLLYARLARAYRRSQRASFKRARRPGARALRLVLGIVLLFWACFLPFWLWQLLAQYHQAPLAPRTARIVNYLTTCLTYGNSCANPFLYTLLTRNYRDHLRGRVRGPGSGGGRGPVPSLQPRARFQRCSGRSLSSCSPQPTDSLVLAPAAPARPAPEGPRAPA
Method: 25 μL of dye solution was added to the wells such that the final liquid volume before agonist/antagonist treatment was 50 μL for all assays. The cell plates were incubated at 37° C. for 45 minutes and the fluorescence intensity was measured on a Fluorometric Imaging Plate Reader (FLIPR^TETRA, Molecular Devices, Sunnyvale, Calif.).
Antagonist and agonist U-II were added at room temperature on the FLIPR^TETRA, and the fluorescence intensity before and after addition was measured over a period of 4 minutes. The dye incubation time and temperature as well as instrument setting was adjusted so the fluorescence intensity could be compared between plates on the same day. EC50 and IC50 were analyzed using GraphPad Prism 4 software (GraphPad Software Inc., San Diego, Calif.).
For assays, U-II agonist, U-II antagonist and urantide were diluted with HBSS/HEPES containing 0.01% FBS.
Test compounds were dissolved in DMSO at 10 mM concentration. The serial dilutions were carried out in HBSS/HEPES. The highest final DMSO concentration was at 0.1%.

[3] = biological target: T3, UT receptors in HSMM (Human Skeletal Muscle Myoblasts) (Homo sapiens, UniProt Q9UKP6); experiment: Human Radioligand Binding Assay ((^125I)-U-II binding to intact HSMM)
T3 sequence (Q9UKP6 1-389): T2 sequence (Q9UKP6 1-389)

[4] = 6D9 human rhabdomyosarcoma cells, FLIPR TETRA, average, read-out: Human UII Ca+ Mobilization Average IC50
[5] = read-out: Human UII Average Binding Ki, intact HSMM, 0.150 nM (^125I)-U-II, 3 h, 25° C.

Structure (SMILES) | IC50 [1] [µM] | IC50 [2, 4] [µM] | Ki [3] [µM] | IC50 [2] [µM] | Ki [3, 5] [µM]
CCN1CCN(c2cccc3c2CN([C@H](CCCN(C)S(=O)(=O)N(C)C)c2ccc(OC)c(OC)c2)C3=O)CC1 [Cpd 1, dimethylaminosulfonic acid {(4R)-4-(3,4-dimethoxy-phenyl)-4-[4-(4-ethyl-piperazin-1-yl)-1-oxo-1,3-dihydro-isoindol-2-yl]-butyl}-methyl-amide] | 0.007 | 0.204 | 0.055 |  | 
CCN1CCC(c2cccc3c2CN([C@H](CCCN(C)S(=O)(=O)c2cccs2)c2ccc(OC)c(OC)c2)C3=O)CC1 [Cpd 2, thiophene-2-sulfonic acid {(4R)-4-(3,4-dimethoxy-phenyl)-4-[4-(1-ethyl-piperidin-4-yl)-1-oxo-1,3-dihydro-isoindol-2-yl]-butyl}-methyl-amide] | 0.032 | 0.695 | 0.05 |  | 
CCN1CCN(c2cccc3c2CN([C@H](CCCN(C)Cc2ccccc2)c2ccc(OC)c(OC)c2)C3=O)CC1 [Cpd 3, 2-[(1R)-4-(benzyl-methyl-amino)-1-(3,4-dimethoxy-phenyl)-butyl]-4-(4-ethyl-piperazin-1-yl)-2,3-dihydro-isoindol-1-one] | 0.004 | 0.071 | 0.034 |  | 
COc1ccc([C@@H](CCCNc2nccc(C(F)(F)F)n2)N2Cc3c(cccc3N3CCN(C4CC4)CC3)C2=O)cc1OC [Cpd 4, 4-(4-cyclopropyl-piperazin-1-yl)-2-[(1R)-1-(3,4-dimethoxy-phenyl)-4-(4-trifluoromethyl-pyrimidin-2-ylamino)-butyl]-2,3-dihydro-isoindol-1-one] | 1.7 | 7.01 | > 0.3 |  | 
COc1ccc([C@@H](CCCNc2nccc(C(F)(F)F)n2)N2Cc3c(cccc3N3CCN(Cc4ccccc4)CC3)C2=O)cc1OC [Cpd 5, 4-(4-benzyl-piperazin-1-yl)-2-[(1R)-1-(3,4-dimethoxy-phenyl)-4-(4-trifluoromethyl-pyrimidin-2-ylamino)-butyl]-2,3-dihydro-isoindol-1-one] | 0.016 | 0.857 | 0.045 |  | 
COc1ccc([C@@H](CCCNc2nccc(C(F)(F)F)n2)N2Cc3c(cccc3N3CCNCC3)C2=O)cc1OC [Cpd 6, 2-[(1R)-1-(3,4-dimethoxy-phenyl)-4-(4-trifluoromethyl-pyrimidin-2-ylamino)-butyl]-4-piperazin-1-yl-2,3-dihydro-isoindol-1-one] | 0.008 | 0.536 | 0.12 |  | 
COc1ccc([C@@H](CCCN(C)S(=O)(=O)c2cccs2)N2Cc3c(cccc3N3CCN(C4CC4)CC3)C2=O)cc1OC [Cpd 7, thiophene-2-sulfonic acid [(4R)-4-[4-(4-cyclopropyl-piperazin-1-yl)-1-oxo-1,3-dihydro-isoindol-2-yl]-4-(3,4-dimethoxy-phenyl)-butyl]-methyl-amide] | 0.013 |  |  | 1.17 | 0.059
COc1ccc([C@@H](CCCN(C)S(=O)(=O)c2cccs2)N2Cc3c(cccc3N3CCN(C(C)C)CC3)C2=O)cc1OC [Cpd 8, thiophene-2-sulfonic acid {(4R)-4-(3,4-dimethoxy-phenyl)-4-[4-(4-isopropyl-piperazin-1-yl)-1-oxo-1,3-dihydro-isoindol-2-yl]-butyl}-methyl-amide] | 0.002 | 0.177 |  |  | 0.011
COc1ccc([C@@H](CCCN(C)S(=O)(=O)c2cccs2)N2Cc3c(cccc3N3CCN(C4CCC4)CC3)C2=O)cc1OC [Cpd 9, thiophene-2-sulfonic acid [(4R)-4-[4-(4-cyclobutyl-piperazin-1-yl)-1-oxo-1,3-dihydro-isoindol-2-yl]-4-(3,4-dimethoxy-phenyl)-butyl]-methyl-amide] | 0.004 | 0.511 |  |  | 0.044
COc1ccc([C@@H](CCCSc2nnnn2C)N2Cc3c(cccc3N3CCNCC3)C2=O)cc1OC [Cpd 24, 2-[(1R)-1-(3,4-dimethoxy-phenyl)-4-(1-methyl-1H-tetrazol-5-ylsulfanyl)-butyl]-4-piperazin-1-yl-2,3-dihydro-isoindol-1-one] | 0.165 | 1.55 |  |  | 
COc1ccc([C@@H](CCCN(C)S(=O)(=O)c2cccs2)N2Cc3c(cccc3N3CCN(C)CC3)C2=O)cc1OC [Cpd 26, thiophene-2-sulfonic acid {(4R)-4-(3,4-dimethoxy-phenyl)-4-[4-(4-methyl-piperazin-1-yl)-1-oxo-1,3-dihydro-isoindol-2-yl]-butyl}-methyl-amide] | 0.016 | 0.337 |  |  | 
CCN1CCN(c2cccc3c2CN([C@H](CCCOCc2cccc(F)c2)c2ccc(OC)c(OC)c2)C3=O)CC1 [Cpd 52, 2-[(1R)-1-(3,4-dimethoxy-phenyl)-4-(3-fluoro-benzyloxy)-butyl]-4-(4-ethyl-piperazin-1-yl)-2,3-dihydro-isoindol-1-one] | 3.13 | > 10 |  |  | 
CCN1CCN(c2cccc3c2CN([C@H](CCCOCc2cccc(C)c2)c2ccc(OC)c(OC)c2)C3=O)CC1 [Cpd 55, 2-[(1R)-1-(3,4-dimethoxy-phenyl)-4-(3-methyl-benzyloxy)-butyl]-4-(4-ethyl-piperazin-1-yl)-2,3-dihydro-isoindol-1-one] | 2.15 | > 10 |  |  | 
CCN1CCN(c2cccc3c2CN([C@H](CCCN(C)S(=O)(=O)c2cccs2)c2ccc(OC)c(OC)c2)C3=O)CC1 [Cpd 62, thiophene-2-sulfonic acid {(4R)-4-(3,4-dimethoxy-phenyl)-4-[4-(4-ethyl-piperazin-1-yl)-1-oxo-1,3-dihydro-isoindol-2-yl]-butyl}-methyl-amide] | 0.007 | 0.088 |  |  | 
CCN1CCN(c2cccc3c2CN([C@H](CCc2ccc4c(n2)NCCC4)c2ccc(OC)c(OC)c2)C3=O)CC1 [Cpd 86, 2-[(1R)-1-(3,4-dimethoxy-phenyl)-3-(5,6,7,8-tetrahydro-[1,8]naphthyridin-2-yl)-propyl]-4-(4-ethyl-piperazin-1-yl)-2,3-dihydro-isoindol-1-one] | < 1 |  | 0.386 |  | 
CCN1CCN(c2cccc3c2CN([C@H](CCCc2ccccc2)c2ccc(OC)c(OC)c2)C3=O)CC1 [Cpd 87, 2-[(1R)-1-(3,4-dimethoxy-phenyl)-4-phenyl-butyl]-4-(4-ethyl-piperazin-1-yl)-2,3-dihydro-isoindol-1-one] | 0.006 |  | 0.037 |  | 
CCN1CCN(c2cccc3c2CN([C@H](CCCN(Cc2ccc(F)cc2)C(C)=O)c2ccc(OC)c(OC)c2)C3=O)CC1 [Cpd 88, N-{(4R)-4-(3,4-dimethoxy-phenyl)-4-[4-(4-ethyl-piperazin-1-yl)-1-oxo-1,3-dihydro-isoindol-2-yl]-butyl}-N-(4-fluoro-benzyl)-acetamide] | 0.006 |  | 0.01 |  | 
CCN1CCN(c2cccc3c2CN([C@H](CCCNc2ccc4ccccc4n2)c2ccc(OC)c(OC)c2)C3=O)CC1 [Cpd 89, 2-[(1R)-1-(3,4-dimethoxy-phenyl)-4-(quinolin-2-ylamino)-butyl]-4-(4-ethyl-piperazin-1-yl)-2,3-dihydro-isoindol-1-one] | 0.26 |  | > 0.3 |  | 
